Legend:
Caco-2 [1] = assay: drug sensitivity score (DSS) for viability; higher = more toxic; extreme values may be limits of the assay; details: 72 h
U2OS [2] = assay: as above; details: 72 h
Vero E6 [3] = assay: as above; details: 72 h
HepG2 [4] = assay: as above; details: 72 h
Calu-3 [5] = assay: as above; details: 72 h
A549-ACE2 [6] = assay: phospholipidosis EC50; higher = less potent phospholipidosis inducer
Caco-2 [7] = assay: relative viability EC50 (midpoint between 100% and the lowest measured viability); higher = less toxic; details: 72 h
U2OS [8] = assay: as above; details: 72 h
Vero E6 [9] = assay: as above; details: 72 h
HepG2 [10] = assay: as above; details: 72 h
Calu-3 [11] = assay: as above; details: 72 h
[12] = system: A549-ACE2 infected with SARS-CoV-2; assay: SARS-CoV-2 infection rate relative to DMSO; higher = more infection; details: 24 h
[13] = system: A549-ACE2 infected with SARS-CoV-2; assay: morphology score (similarity to uninfected cells); higher = more like uninfected cells; details: 24 h
Caco-2 [14] = assay: cell viability relative to DMSO; higher = less toxic; details: 72 h
U2OS [15] = assay: as above; details: 72 h
Vero E6 [16] = assay: as above; details: 72 h
HepG2 [17] = assay: as above; details: 72 h
Calu-3 [18] = assay: as above; details: 72 h
A549-ACE2 [19] = assay: drug-induced phospholipidosis relative to tamoxifen; higher = more phospholipidosis
[20] = system: A549-ACE2 infected with SARS-CoV-2; assay: cell count relative to DMSO; higher = less toxic; details: 24 h

CCOC(=O)C1=C(COCCN)NC(C)=C(C(=O)OC)C1c1ccccc1Cl (configuration not stated) [amlodipine]
Details | drug sensitivity score | relative viability EC50 [µM]
Caco-2 [1] | 0 | –
Caco-2 [7] | – | > 10
Calu-3 [5] | 0 | –
Calu-3 [11] | – | > 10
HepG2 [4] | 0 | –
HepG2 [10] | – | > 10
U2OS [2] | 0 | –
U2OS [8] | – | > 10
Vero E6 [3] | 0 | –
Vero E6 [9] | – | > 10

Details | SARS-CoV-2 infection rate [%] | cell count [%] | cell viability [%] | morphology score | phospholipidosis EC50 [µM]
A549-ACE2 [6], 24 h | – | – | – | – | 10.9
Caco-2 [14], 1 nM | – | – | 97.9 | – | –
Caco-2 [14], 10 nM | – | – | 102 | – | –
Caco-2 [14], 100 nM | – | – | 98.2 | – | –
Caco-2 [14], 1000 nM | – | – | 93.5 | – | –
Caco-2 [14], 10000 nM | – | – | 94.2 | – | –
Calu-3 [18], 1 nM | – | – | 93.6 | – | –
Calu-3 [18], 10 nM | – | – | 104 | – | –
Calu-3 [18], 100 nM | – | – | 94.1 | – | –
Calu-3 [18], 1000 nM | – | – | 102 | – | –
Calu-3 [18], 10000 nM | – | – | 93.9 | – | –
HepG2 [17], 1 nM | – | – | 97.7 | – | –
HepG2 [17], 10 nM | – | – | 98.1 | – | –
HepG2 [17], 100 nM | – | – | 91.2 | – | –
HepG2 [17], 1000 nM | – | – | 99.2 | – | –
HepG2 [17], 10000 nM | – | – | 96.4 | – | –
U2OS [15], 1 nM | – | – | 94.8 | – | –
U2OS [15], 10 nM | – | – | 102 | – | –
U2OS [15], 100 nM | – | – | 96.6 | – | –
U2OS [15], 1000 nM | – | – | 101 | – | –
U2OS [15], 10000 nM | – | – | 97.5 | – | –
Vero E6 [16], 1 nM | – | – | 96.7 | – | –
Vero E6 [16], 10 nM | – | – | 90.2 | – | –
Vero E6 [16], 100 nM | – | – | 91.1 | – | –
Vero E6 [16], 1000 nM | – | – | 84.8 | – | –
Vero E6 [16], 10000 nM | – | – | 96.1 | – | –
[12], 0.3 µM | 107 | – | – | – | –
[12], 3 µM | 79 | – | – | – | –
[12], 10 µM | 23 | – | – | – | –
[12], 30 µM | 30 | – | – | – | –
[13], 0.3 µM | – | – | – | -0.27 | –
[13], 3 µM | – | – | – | 0.49 | –
[13], 10 µM | – | – | – | 0.92 | –
[13], 30 µM | – | – | – | 0.35 | –
[20], 0.3 µM | – | 96 | – | – | –
[20], 3 µM | – | 112 | – | – | –
[20], 10 µM | – | 119 | – | – | –
[20], 30 µM | – | 91 | – | – | –

drug-induced phospholipidosis [%], A549-ACE2 [19]
Details | 0.3 µM | 0.833333 µM | 3.33333 µM | 6.66667 µM | 10 µM | 30 µM
24 h | 4.07 | -2.24 | 14.4 | 39.7 | 58.4 | 105
48 h | 3.72 | 0.34 | 10.8 | 17.5 | 37 | 187
72 h | 5.62 | -0.058 | 6.8 | 13.1 | 21 | 181

CNCCC(Oc1ccc(C(F)(F)F)cc1)c1ccccc1 (configuration not stated) [fluoxetine]
Details | drug sensitivity score
Calu-3 [5] | 0.3
HepG2 [4] | 1.6
U2OS [2] | 0
Vero E6 [3] | 0.2

Details | morphology score, 0.3 µM | morphology score, 3 µM | morphology score, 10 µM | morphology score, 30 µM | phospholipidosis EC50, 24 h [µM] | phospholipidosis EC50, 48 h [µM] | phospholipidosis EC50, 72 h [µM]
A549-ACE2 [6] | – | – | – | – | 7.05 | 7.62 | 7.61
[13] | 0.06 | 0.65 | 0.87 | 0.74 | – | – | –
